Reference: US11352408B2, “Antitumor peptide having PD-1 signal sequence and utilization thereof” (TOAGOSEI CO.,LTD., priority 2017, dated 2022)
Read-outs that look alike come from different tables or passages of the source. Where a SMILES comes first, the peptide text is derived from it.

Tests used:
[1] = tested on: human non small cell lung cancer cell line (NCI-H2444); assay: Antitumor activity evaluation, cell viability by Cell Counting Kit-8 (WST-8); format: cell-based
Experimental: (§1) The cell viability (%) was determined as indicated hereinbelow.

[2] = tested on: human non small cell lung cancer cell line (HCC827); assay: as above; format: cell-based
Experimental: as §1

in vitro = format: cell-based; settings: human
Experimental: (3) cultured normal human mammary epithelial cell line (MCF-12F):
DMEM/F12 medium (product from Wako Pure Chemical Industries, Ltd.) containing 20 ng/mL recombinant EGF, 10 μg/mL insulin, 0.5 μg/mL hydrocortisone and 10% FBS.
as §1

[3] = tested on: human breast adenocarcinoma cell line (MDA-MB-231); format: cell-based; settings: 48 h
Experimental: (§2) Some of the sample peptides synthesized in Test Example 1 were evaluated for antitumor activity on several types of cultured tumor cells.
(§3) Specifically, test tumor cells used were currently commercially available human non small cell lung cancer cell line (NCI-H2444), human non small cell lung cancer cell line (HCC827), human alveolar basal epithelial adenocarcinoma cell line (A549), human small cell lung cancer cell line (NCI-H446), human melanoma cell line (A2058) and human breast adenocarcinoma cell line (MDA-MB-231). As a comparison, a commercially available cultured normal human mammary epithelial cell line (MCF-12F) was used.
(§4) (2) human melanoma cell line (A2058) and human breast adenocarcinoma cell line (MDA-MB-231):
(§5) DMEM medium (product from Wako Pure Chemical Industries, Ltd.) containing 2 mM L-glutamine, 0.1 mM non-essential amino acids, 50 units/mL penicillin, 50 μg/mL streptomycin and 10% FBS; and
(§6) The above six cell lines were cultured in each of the media indicated above and the number of cells was adjusted to be approximately 5×10^3 per well in a 96-well plate. The amount of the medium was 100 μL per well.
(§7) The 96-well plate was placed in a CO2 incubator and pre-incubated under conditions of 37° C. and 5% CO2 for approximately one day (21 hours to 24 hours).
(§8) Thereafter, peptide-containing test media were respectively prepared for each concentration so that the concentration of any of the sample peptides to be evaluated was either 12.5 μM or 25 μM, and were supplied to wells (namely, wells after pre-incubation above) in which cells to be evaluated were cultured at 90 μL per well. The 96-well plate was placed back in the CO2 incubator and incubated under conditions of 37° C. and 5% CO2 for 48 hours.
(§9) The number (n) of test wells per each peptide concentration in the test section to which peptides were added was 3. Therefore, the values indicated in the result section in the table hereinbelow are averages of results obtained from 3 test wells. The cell viability (%) was determined as indicated hereinbelow.
(§10) After a 48-hour incubation, the medium in the wells was replaced by 100 μL fresh medium without peptide, and 10 μL of a reagent for cell proliferation measurement “Cell Counting Kit-8” (product from Dojindo Laboratories) containing “water-soluble tetrazolium salt (WST-8)” as a chromogenic reagent was added to each well. The 96-well plate was then placed back in the CO2 incubator and incubated under conditions of 37° C. and 5% CO2 for 1.5 hours to 2 hours.
(§11) After completion of the incubation, the cell culture medium to which the reagent was added was recovered and the cell viability (%) was evaluated by a colorimetric method in which the absorbance at a wavelength of 450 nm (the value corrected with the absorbance at a wavelength 650 nm: A450-A650) due to reduction of the tetrazolium salt was measured. Specifically, the cell viability (%) of each test cell line was calculated from the measured absorbance as a relative value to the measured value (measured absorbance) in the comparative test section in which the incubation over 48 hours as above was carried out only with a medium without peptide, that was regarded as 100% of the cell viability.

[4] = tested on: human melanoma cell line (A2058); format: cell-based; settings: 48 h
Experimental: as §2, §3, §4, §5, §6, §7, §8, §9, §10, §11

[5] = tested on: tumor cells tested in the present Test Example; assay: Evaluation test on antitumor activities of synthetic peptides, overall finding; format: cell-based, human; settings: compared to comparative samples 3 to 5
Experimental: as §1

[6] = tested on: human small cell lung cancer cell line (NCI-H446); format: cell-based; settings: 48 h
Experimental: as §1

[7] = tested on: human alveolar basal epithelial adenocarcinoma cell line (A549); settings: 48 hours, relative to medium without peptide = 100%
Experimental: as §2, §3
The above six cell lines were cultured in each of the media indicated above and the number of cells was adjusted to be approximately 5×10^3 per well in a 96-well plate. The amount of the medium was 100 μL per well. […]
as §8, with “The 96-well plate was placed back in the CO2 incubator and incubated under conditions of 37° C. and 5% CO2 for 48 hours.” left out
The number (n) of test wells per each peptide concentration in the test section to which peptides were added was 3. […] The cell viability (%) was determined as indicated hereinbelow. […]

| Structure (SMILES) | Cell viability (%) ([1]; human, 48 h, 12.5 µM) | Cell viability (%) ([1]; human, 48 h, 25 µM) | Cell viability (%) ([2]; human, 48 h, 12.5 µM) | Cell viability (%) ([2]; human, 48 h, 25 µM) | viability at 48 h, 12.5 µM (in vitro) | viability at 48 h, 25 µM (in vitro) | Cell viability (%) ([3]; 12.5 µM) | Cell viability (%) ([3]; 25 µM) | Cell viability (%) ([4]; 12.5 µM) | Cell viability (%) ([4]; 25 µM) | antitumor activity (inhibitory activity of proliferation of tumor cells) [5] | Cell viability (%) ([6]; 12.5 µM) | Cell viability (%) ([6]; 25 µM) | Cell viability (%) ([1]; NCI-H2444, test peptide concentration 12.5 μM, 48 hours, relative to medium without peptide = 100%) | Cell viability (%) ([1]; NCI-H2444, test peptide concentration 25.0 μM, 48 hours, relative to medium without peptide = 100%) | Cell viability (%) ([2]; HCC827, test peptide concentration 12.5 μM, 48 hours, relative to medium without peptide = 100%) | Cell viability (%) ([2]; HCC827, test peptide concentration 25.0 μM, 48 hours, relative to medium without peptide = 100%) | Cell viability (%) ([7]; test peptide concentration 12.5 μM) | Cell viability (%) ([7]; test peptide concentration 25.0 μM) |
| --- | --- | --- | --- | --- | --- | --- | --- | --- | --- | --- | --- | --- | --- | --- | --- | --- | --- | --- | --- |
| CC[C@H](C)[C@H](NC(=O)[C@H](CCC(N)=O)NC(=O)[C@@H](N)CCSC)C(=O)N1CCC[C@H]1C(=O)N[C@@H](CCC(N)=O)C(=O)N[C@@H](C)C(=O)N1CCC[C@H]1C(=O)N[C@@H](Cc1c[nH]c2ccccc12)C(=O)N1CCC[C@H]1C(=O)N[C@H](C(=O)N[C@H](C(=O)N[C@@H](Cc1c[nH]c2ccccc12)C(=O)N[C@@H](C)C(=O)N[C@H](C(=O)N[C@@H](CC(C)C)C(=O)N[C@@H](CCC(N)=O)C(=O)N[C@@H](CC(C)C)C(=O)NCC(=O)N[C@@H](Cc1c[nH]c2ccccc12)C(=O)N[C@@H](CCCNC(=N)N)C(=O)N[C@@H](CCCCN)C(=O)N[C@@H](CCCCN)C(=O)N[C@@H](CCCNC(=N)N)C(=O)N[C@H](C(=O)N[C@@H](CC(C)C)C(=O)N[C@@H](CCCNC(=N)N)C(=O)N[C@@H](CCCCN)C(=O)N[C@@H](CC(N)=O)C(=O)N[C@@H](CC(=O)O)C(=O)N[C@@H](CCCNC(=N)N)C(=O)N[C@@H](CCCCN)C(=O)N[C@@H](CCCCN)C(=O)N[C@@H](CCCNC(=N)N)C(N)=O)[C@@H](C)O)C(C)C)C(C)C)C(C)C [Sample 1] (H-MQIPQAPWPVVWAVLQLGWRKKRTLRKNDRKKR-NH2; N-terminus assumed) | 59.6% | 6.8% | 49.8% | 11.8% | 97.4% | 62.3% | 63.1% | 9.9% | 50.4% | 6.7% | excellent antitumor activity | 2.5% | 0.5% |  |  |  |  |  |  |
| CC[C@H](C)[C@H](NC(=O)[C@H](CCC(N)=O)NC(=O)[C@@H](N)CCSC)C(=O)N1CCC[C@H]1C(=O)N[C@@H](CCC(N)=O)C(=O)N[C@@H](C)C(=O)N1CCC[C@H]1C(=O)N[C@@H](Cc1c[nH]c2ccccc12)C(=O)N1CCC[C@H]1C(=O)N[C@H](C(=O)N[C@H](C(=O)N[C@@H](Cc1c[nH]c2ccccc12)C(=O)N[C@@H](C)C(=O)N[C@H](C(=O)N[C@@H](CC(C)C)C(=O)N[C@@H](CCC(N)=O)C(=O)N[C@@H](CC(C)C)C(=O)NCC(=O)N[C@@H](Cc1c[nH]c2ccccc12)C(=O)N[C@@H](CCCNC(=N)N)C(=O)N[C@@H](CCCNC(=N)N)C(=O)N[C@@H](CCCCN)C(=O)N[C@@H](CCCCN)C(=O)N[C@@H](CCCNC(=N)N)C(=O)N[C@@H](CCCNC(=N)N)C(=O)N[C@@H](CCC(N)=O)C(=O)N[C@@H](CCCNC(=N)N)C(=O)N[C@@H](CCCNC(=N)N)C(=O)N[C@@H](CCCNC(=N)N)C(N)=O)C(C)C)C(C)C)C(C)C [Sample 2] (H-MQIPQAPWPVVWAVLQLGWRRKKRRQRRR-NH2; N-terminus assumed) |  |  |  |  |  |  |  |  |  |  | excellent antitumor activity |  |  | 50.4% | 3.6% | 62.9% | 4.9% | 52.4% | 9.1% |
| CC[C@H](C)[C@H](NC(=O)[C@H](CCCNC(=N)N)NC(=O)[C@@H](N)CCSC)C(=O)N[C@@H](Cc1ccccc1)C(=O)N[C@@H](C)C(=O)N[C@H](C(=O)N[C@@H](Cc1ccccc1)C(=O)N[C@H](C(=O)N[C@@H](Cc1ccccc1)C(=O)N[C@@H](CCSC)C(=O)N[C@H](C(=O)N[C@@H](Cc1ccc(O)cc1)C(=O)N[C@@H](Cc1c[nH]c2ccccc12)C(=O)N[C@@H](Cc1c[nH]cn1)C(=O)N[C@@H](CC(C)C)C(=O)N[C@@H](CC(C)C)C(=O)N[C@@H](CC(N)=O)C(=O)N[C@@H](C)C(=O)N[C@@H](CCCCN)C(=O)N[C@@H](CCCCN)C(=O)N[C@@H](CCCNC(=N)N)C(=O)N[C@H](C(=O)N[C@@H](CC(C)C)C(=O)N[C@@H](CCCNC(=N)N)C(=O)N[C@@H](CCCCN)C(=O)N[C@@H](CC(N)=O)C(=O)N[C@@H](CC(=O)O)C(=O)N[C@@H](CCCNC(=N)N)C(=O)N[C@@H](CCCCN)C(=O)N[C@@H](CCCCN)C(=O)N[C@@H](CCCNC(=N)N)C(N)=O)[C@@H](C)O)[C@@H](C)O)[C@@H](C)CC)C(C)C [Sample 3, reference compound] (H-MRIFAVFIFMTYWHLLNAKKRTLRKNDRKKR-NH2; N-terminus assumed) | 106.3% | 87.7% | 105.4% | 120.6% | 87.3% | 81.7% | 89.3% | 83.7% | 100.9% | 87.5% |  | 67.9% | 56.7% |  |  |  |  |  |  |
| CC[C@H](C)[C@H](NC(=O)[C@H](CC(C)C)NC(=O)[C@H](CC(C)C)NC(=O)[C@H](CCSC)NC(=O)[C@H](CCC(N)=O)NC(=O)[C@H](CCC(N)=O)NC(=O)[C@H](CCC(N)=O)NC(=O)[C@@H](NC(=O)[C@@H](NC(=O)[C@@H](NC(=O)[C@@H]1CCCN1C(=O)[C@@H]1CCCN1C(=O)[C@H](Cc1c[nH]c2ccccc12)NC(=O)[C@H](Cc1c[nH]c2ccccc12)NC(=O)[C@H](Cc1c[nH]c2ccccc12)NC(=O)[C@@H]1CCCN1)C(C)C)C(C)C)C(C)C)C(=O)NCC(=O)N[C@@H](C)C(=O)N[C@@H](C)C(=O)N[C@@H](CCCNC(=N)N)C(=O)N[C@@H](CCCCN)C(=O)N[C@@H](CCCCN)C(=O)N[C@@H](CCCNC(=N)N)C(=O)N[C@H](C(=O)N[C@@H](CC(C)C)C(=O)N[C@@H](CCCNC(=N)N)C(=O)N[C@@H](CCCCN)C(=O)N[C@@H](CC(N)=O)C(=O)N[C@@H](CC(=O)O)C(=O)N[C@@H](CCCNC(=N)N)C(=O)N[C@@H](CCCCN)C(=O)N[C@@H](CCCCN)C(=O)N[C@@H](CCCNC(=N)N)C(N)=O)[C@@H](C)O [Sample 4] (H-PWWWPPVVVQQQMLLIGAARKKRTLRKNDRKKR-NH2; N-terminus assumed) |  |  | 110.9% | 102.6% |  |  |  |  |  |  |  |  |  |  |  |  |  |  |  |
| CC(C)C[C@H](NC(=O)[C@@H](NC(=O)[C@H](CCCNC(=N)N)NC(=O)[C@H](CCCCN)NC(=O)[C@@H](N)CCCCN)[C@@H](C)O)C(=O)N[C@@H](CCCNC(=N)N)C(=O)N[C@@H](CCCCN)C(=O)N[C@@H](CC(N)=O)C(=O)N[C@@H](CC(=O)O)C(=O)N[C@@H](CCCNC(=N)N)C(=O)N[C@@H](CCCCN)C(=O)N[C@@H](CCCCN)C(=O)N[C@@H](CCCNC(=N)N)C(N)=O [Sample 5, KKRTLRKNDRKKR-CONH2] (H-KKRTLRKNDRKKR-NH2; N-terminus assumed) |  |  | 106.7% | 106.5% |  |  |  |  |  |  |  |  |  |  |  |  |  |  |  |
